Tested on: over active bladder
Conditions: oral, 5 mg pills three times per day
Description: Their doctor prescribes an anti-cholinergic agent, oxybutynin chloride, taken orally three times per day in 5 mg pills.
Alternatively, their doctor prescribes an oxybutynin urethral suppository of the invention. Before leaving home, they open the individually wrapped suppository, grasping it by the handle; they insert the meltable portion, containing up to 5 mg of oxybutynin chloride, into their urethra. […] If necessary, the person can remove the remaining portions of the suppository and insert a new suppository to prevent uncontrolled voiding episodes.

## CCN(CC)CC#CCOC(=O)C(O)(c1ccccc1)C1CCCCC1 (centres unmarked) [oxybutynin chloride]
Patient one
  effect on uncontrolled voiding episodes: eliminates the uncontrolled voiding episodes
Patient two
  side effects: severe dry mouth and dizziness

From patent publication US7267670B2, “Reinforced urethral suppository” (priority 2001, dated 2007)
